Laboratory results from US20260159511A1, “SMALL MOLECULE STING ANTAGONISTS” (CURADEV PHARMA PVT. LTD., priority 2021, published 2026).
Where two headings read alike, the source gives them in different places.

Test system: IRF pathway in THP1-Dual™ cells, THP-1 (HAQ)
Test: Reporter gene expression assay in THP-1 cells (THP1-Dual, IRF pathway Lucia luciferase reporter, 2′,3′-cGAMP stimulation)
Format: cell-based, human
Details: read-out: THP-1 (HAQ) Activity (IC50 value range)
Protocol: Reporter Gene Expression Assay in THP-1 Cells
THP1-Dual™ cells (Invivogen) were derived from the human THP-1 monocyte cell line by stable integration of two inducible reporter constructs. As a result, THP1-Dual™ cells allow the simultaneous study of the IRF pathway, by assessing the activity of a secreted luciferase (Lucia) and the NF-κB pathway, by monitoring the activity of secreted SEAP. 5×10^4 THP1-Dual™ cells were seeded in 384-well plates in growth medium and preincubated with novel compounds for 10 minutes followed by stimulation with 5 μM 2′,3′-cGAMP. After 20 hr of stimulation the supernatant was removed and the IRF pathway reporter protein was readily measured in the cell culture supernatant using QUANTI-Luc™ (Invivogen), a luciferase detection reagent on a Spectramax i3X luminometer.

[1] = THP1-Dual cells preincubated with compound 10 minutes, stimulation with 5 μM 2′,3′-cGAMP for 20 hr, QUANTI-Luc readout of the supernatant
[2] = Homo sapiens, THP1-Dual cells preincubated with compound 10 minutes, stimulation with 5 μM 2′,3′-cGAMP for 20 hr, QUANTI-Luc readout of the supernatant

CC1Sc2ccc(NC(=O)Nc3c[nH]c4ccccc34)cc2N(Cc2ccccc2)C1=O (stereo not drawn) [Example 35, 1-(4-benzyl-2-methyl-3-oxo-3,4-dihydro-2H-benzo[b][1,4]thiazin-6-yl)-3-(1H-indol-3-yl)urea]
IC50 [1]: < 1000 nM

CC1Sc2ccc(NC(=O)Nc3c[nH]c4ccccc34)cc2N(Cc2ccccc2)C1=O (stereo not drawn) [Example 36, 1-(4-benzyl-2-methyl-3-oxo-3,4-dihydro-2H-benzo[b][1,4]thiazin-6-yl)-3-(1H-indol-3-yl)urea]
IC50 [1]: < 1000 nM

N#Cc1ccc2[nH]cc(NC(=O)Nc3ccc4c(c3)N(Cc3ccccc3)C(=O)CS4)c2c1 [Example 37, 1-(4-benzyl-3-oxo-3,4-dihydro-2H-benzo[b][1,4]thiazin-6-yl)-3-(5-cyano-1H-indol-3-yl)urea]
IC50 [2]: < 1000 nM

O=C(Nc1ccc2c(c1)N(Cc1ccccc1)C(=O)CS2)Nc1c[nH]c2ccc(-c3ccn[nH]3)cc12 [Example 38, 1-(5-(1H-Pyrazol-5-yl)-1H-indol-3-yl)-3-(4-benzyl-3-oxo-3,4-dihydro-2H-benzo[b][1,4]thiazin-6-yl)urea]
IC50 (Homo sapiens): 1000 to 10000 nM

O=C(Nc1ccc2c(c1)N(Cc1ccccc1)C(=O)CS2)Nc1c[nH]c2ccc(-c3cnco3)cc12 [Example 39, 1-(4-benzyl-3-oxo-3,4-dihydro-2H-benzo[b][1,4]thiazin-6-yl)-3-(5-(oxazol-5-yl)-1H-indol-3-yl)urea]
IC50 [2]: < 1000 nM

O=C(Nc1ccc2c(c1)N(Cc1ccccc1)C(=O)CS2)Nc1c[nH]c2ccc(-c3cc(F)cc(F)c3)cc12 [Example 40, 1-(4-benzyl-3-oxo-3,4-dihydro-2H-benzo[b][1,4]thiazin-6-yl)-3-(5-(3,5-difluorophenyl)-1H-indol-3-yl)urea]
IC50 [2]: < 1000 nM

Cc1ncc(-c2ccc3[nH]cc(NC(=O)Nc4ccc5c(c4)N(Cc4ccccc4)C(=O)CS5)c3c2)o1 [Example 41, 1-(4-benzyl-3-oxo-3,4-dihydro-2H-benzo[b][1,4]thiazin-6-yl)-3-(5-(2-methyloxazol-5-yl)-1H-indol-3-yl)urea]
IC50 [2]: 1000 to 10000 nM

O=C(Nc1ccc2c(c1)N(Cc1ccccc1)C(=O)CS2)Nc1c[nH]c2ccc(-c3cnsc3)cc12 [Example 42, 1-(4-benzyl-3-oxo-3,4-dihydro-2H-benzo[b][1,4]thiazin-6-yl)-3-(5-(isothiazol-4-yl)-1H-indol-3-yl)urea]
IC50 [2]: < 1000 nM

O=C(Nc1ccc2c(c1)N(Cc1ccccc1)C(=O)CS2)Nc1c[nH]c2ccc(-c3cccc(CO)c3)cc12 [Example 43, 1-(4-benzyl-3-oxo-3,4-dihydro-2H-benzo[b][1,4]thiazin-6-yl)-3-(5-(3-(hydroxymethyl)phenyl)-1H-indol-3-yl)urea]
IC50 [2]: < 1000 nM

O=C(Nc1ccc2c(c1)N(Cc1ccccc1)C(=O)CS2)Nc1c[nH]c2ccc(-c3cn[nH]c3)cc12 [Example 44, 1-(5-(1H-pyrazol-4-yl)-1H-indol-3-yl)-3-(4-benzyl-3-oxo-3,4-dihydro-2H-benzo[b][1,4]thiazin-6-yl)urea]
IC50 [2]: 1000 to 10000 nM

N#Cc1cccc(-c2ccc3[nH]cc(NC(=O)Nc4ccc5c(c4)N(Cc4ccccc4)C(=O)CS5)c3c2)c1 [Example 45, 1-(4-benzyl-3-oxo-3,4-dihydro-2H-benzo[b][1,4]thiazin-6-yl)-3-(5-(3-cyanophenyl)-1H-indol-3-yl)urea]
IC50 [2]: < 1000 nM

O=C(Nc1ccc2c(c1)N(Cc1ccccc1)C(=O)CS2)Nc1c[nH]c2ccc(-c3cnn(CCO)c3)cc12 [Example 46, 1-(4-benzyl-3-oxo-3,4-dihydro-2H-benzo[b][1,4]thiazin-6-yl)-3-(5-(1-(2-hydroxyethyl)-1H-pyrazol-4-yl)-1H-indol-3-yl)urea]
IC50 [2]: 1000 to 10000 nM

CCn1cc(-c2ccc3[nH]cc(NC(=O)Nc4ccc5c(c4)N(Cc4ccccc4)C(=O)CS5)c3c2)cn1 [Example 47, 1-(4-benzyl-3-oxo-3,4-dihydro-2H-benzo[b][1,4]thiazin-6-yl)-3-(5-(1-ethyl-1H-pyrazol-4-yl)-1H-indol-3-yl)urea]
IC50 [2]: < 1000 nM

NC(=O)c1cccc(-c2ccc3[nH]cc(NC(=O)Nc4ccc5c(c4)N(Cc4ccccc4)C(=O)CS5)c3c2)c1 [Example 48, 3-(3-(3-(4-benzyl-3-oxo-3,4-dihydro-2H-benzo[b][1,4]thiazin-6-yl)ureido)-1H-indol-5-yl)benzamide]
IC50 [2]: 1000 to 10000 nM

COCCn1cc(-c2ccc3[nH]cc(NC(=O)Nc4ccc5c(c4)N(Cc4ccccc4)C(=O)CS5)c3c2)cn1 [Example 49, 1-(4-benzyl-3-oxo-3,4-dihydro-2H-benzo[b][1,4]thiazin-6-yl)-3-(5-(1-(2-methoxyethyl)-1H-pyrazol-4-yl)-1H-indol-3-yl)urea]
IC50 [2]: 1000 to 10000 nM

O=C(Nc1ccc2c(c1)N(Cc1ccccc1)C(=O)CS2)Nc1c[nH]c2ccc(-c3cnn(C(F)F)c3)cc12 [Example 50, 1-(4-benzyl-3-oxo-3,4-dihydro-2H-benzo[b][1,4]thiazin-6-yl)-3-(5-(1-(difluoromethyl)-1H-pyrazol-4-yl)-1H-indol-3-yl)urea]
IC50 [2]: < 1000 nM

O=C(Nc1ccc2c(c1)N(Cc1ccccc1)C(=O)CS2)Nc1c[nH]c2ccc(-c3ccncc3)cc12 [Example 51, 1-(4-benzyl-3-oxo-3,4-dihydro-2H-benzo[b][1,4]thiazin-6-yl)-3-(5-(pyridin-4-yl)-1H-indol-3-yl)urea]
IC50 [2]: < 1000 nM

N#CCCn1cc(-c2ccc3[nH]cc(NC(=O)Nc4ccc5c(c4)N(Cc4ccccc4)C(=O)CS5)c3c2)cn1 [Example 52, 1-(4-benzyl-3-oxo-3,4-dihydro-2H-benzo[b][1,4]thiazin-6-yl)-3-(5-(1-(2-cyanoethyl)-1H-pyrazol-4-yl)-1H-indol-3-yl)urea]
IC50 [2]: 1000 to 10000 nM

COc1cccc(-c2ccc3[nH]cc(NC(=O)Nc4ccc5c(c4)N(Cc4ccccc4)C(=O)CS5)c3c2)c1 [Example 53, 1-(4-benzyl-3-oxo-3,4-dihydro-2H-benzo[b][1,4]thiazin-6-yl)-3-(5-(3-methoxyphenyl)-1H-indol-3-yl)urea]
IC50 [2]: < 1000 nM

CS(=O)(=O)c1cccc(-c2ccc3[nH]cc(NC(=O)Nc4ccc5c(c4)N(Cc4ccccc4)C(=O)CS5)c3c2)c1 [Example 54, 1-(4-benzyl-3-oxo-3,4-dihydro-2H-benzo[b][1,4]thiazin-6-yl)-3-(5-(3-(methylsulfonyl)phenyl)-1H-indol-3-yl)urea]
IC50 [2]: 1000 to 10000 nM

O=C(Nc1ccc2c(c1)N(Cc1ccccc1)C(=O)CS2)Nc1c[nH]c2ccc(-c3cccnc3)cc12 [Example 55, 1-(4-benzyl-3-oxo-3,4-dihydro-2H-benzo[b][1,4]thiazin-6-yl)-3-(5-(pyridin-3-yl)-1H-indol-3-yl)urea]
IC50 [2]: < 1000 nM

O=C(Nc1ccc2c(c1)N(Cc1ccccc1)C(=O)CS2)Nc1c[nH]c2ccc(-c3cncnc3)cc12 [Example 56, 1-(4-benzyl-3-oxo-3,4-dihydro-2H-benzo[b][1,4]thiazin-6-yl)-3-(5-(pyrimidin-5-yl)-1H-indol-3-yl)urea]
IC50 [2]: < 1000 nM

O=C(Nc1ccc2c(c1)N(Cc1ccccc1)C(=O)CS2)Nc1c[nH]c2ccc(-c3cncc(Cl)c3)cc12 [Example 57, 1-(4-benzyl-3-oxo-3,4-dihydro-2H-benzo[b][1,4]thiazin-6-yl)-3-(5-(5-chloropyridin-3-yl)-1H-indol-3-yl)urea]
IC50 [2]: < 1000 nM

O=C(Nc1ccc2c(c1)N(Cc1ccccc1)C(=O)CS2)Nc1c[nH]c2ccc(-c3cccc(OC(F)(F)F)c3)cc12 [Example 58, 1-(4-benzyl-3-oxo-3,4-dihydro-2H-benzo[b][1,4]thiazin-6-yl)-3-(5-(3-(trifluoromethoxy)phenyl)-1H-indol-3-yl)urea]
IC50 [2]: < 1000 nM

CC(C)n1cc(-c2ccc3[nH]cc(NC(=O)Nc4ccc5c(c4)N(Cc4ccccc4)C(=O)CS5)c3c2)cn1 [Example 59, 1-(4-benzyl-3-oxo-3,4-dihydro-2H-benzo[b][1,4]thiazin-6-yl)-3-(5-(1-isopropyl-1H-pyrazol-4-yl)-1H-indol-3-yl)urea]
IC50 [2]: < 1000 nM

O=C(Nc1ccc2c(c1)N(Cc1ccccc1)C(=O)CS2)Nc1c[nH]c2ccc(-c3cnn(CC4CC4)c3)cc12 [Example 60, 1-(4-benzyl-3-oxo-3,4-dihydro-2H-benzo[b][1,4]thiazin-6-yl)-3-(5-(1-(cyclopropylmethyl)-1H-pyrazol-4-yl)-1H-indol-3-yl)urea]
IC50 [2]: < 1000 nM

O=C(Nc1ccc2c(c1)N(Cc1ccccc1)C(=O)CS2)Nc1c[nH]c2ccc(-c3cncc(CO)c3)cc12 [Example 61, 1-(4-benzyl-3-oxo-3,4-dihydro-2H-benzo[b][1,4]thiazin-6-yl)-3-(5-(5-(hydroxymethyl)pyridin-3-yl)-1H-indol-3-yl)urea]
IC50 [2]: 1000 to 10000 nM

O=C1Cc2ccc(-c3ccc4[nH]cc(NC(=O)Nc5ccc6c(c5)N(Cc5ccccc5)C(=O)CS6)c4c3)cc2N1 [Example 62, 1-(4-benzyl-3-oxo-3,4-dihydro-2H-benzo[b][1,4]thiazin-6-yl)-3-(5-(2-oxoindolin-6-yl)-1H-indol-3-yl)urea]
IC50 [2]: < 1000 nM

O=C(Nc1ccc2c(c1)N(Cc1ccccc1)C(=O)CS2)Nc1c[nH]c2ccc(-c3ccc(O)nc3)cc12 [Example 63, 1-(4-benzyl-3-oxo-3,4-dihydro-2H-benzo[b][1,4]thiazin-6-yl)-3-(5-(6-hydroxypyridin-3-yl)-1H-indol-3-yl)urea]
IC50 [2]: 1000 to 10000 nM

O=C(Nc1ccc2c(c1)N(Cc1ccccc1)C(=O)CS2)Nc1c[nH]c2ccc(-c3cncs3)cc12 [Example 64, 1-(4-benzyl-3-oxo-3,4-dihydro-2H-benzo[b][1,4]thiazin-6-yl)-3-(5-(thiazol-5-yl)-1H-indol-3-yl)urea]
IC50 [2]: < 1000 nM
